Experimental data reported in US10786429B2, “Preservative removal from eye drops” (University of Florida Research Foundation, Inc., priority 2016, dated 2020).
Where a name gives a salt, the structure may show the parent alone. Marks after values point to notes of the source that are not given here.

Experiments:
Type in all cases: physicochemical
[1] = Partition and adsorption into pHEMA matrix (general statement)
[2] = Partition coefficient in HEMA/MAA copolymer gels of various compositions
Experimental: Gels of […] were synthesized using 2 mL monomer solution, 2.7 mL of water, 10 μL of ethylene glycol dimethacrylate as crosslinker, and 6 mg of Darocur TPO as a photoinitiator. The monomer solution had different fractions of HEMA and MAA (i.e. 60% MAA would be 1.2 mL MAA and 0.8 mL HEMA). Gels were cured under UV light in 100 micron thick molds and subsequently cut into pieces approximately 50 mg in mass. Some gels were loaded with BAK to give a 3× (or 300 ppm) initial concentration and placed into 3 mL solution (either 0.025% Bimatoprost/PBS 1× or 0.2% BAK/PBS). The concentrations in solution were measured using UV-vis spectrophotometry. Upon achieving equilibrium, the gels were placed in 3 mL blank PBS, and release was monitored by UV-vis spectrophotometry. Uptake and release equilibrium concentrations were used to calculate partition coefficients. FIGS. 28 and 29 are plots of the partition coefficient for Bimatoprost and BAK for various gel copolymer compositions.

[3] = Partition coefficient of BAK in pHEMA particles prepared by heat-initiated polymerization
[4] = Langmuir adsorption isotherm fit of equilibrium interfacial surface tension of BAK solutions; details: Langmuir model fit
Experimental: An eye drop bottle's plug (tip) was packed with 0.1 g of p-HEMA particles for Timolol Maleate commercial formulation (Sandoz Inc.) and 0.1 g of p-HEMA/MAA particles for Bimatoprost commercial formation (Allegran Inc.). Approximately 0.5 mL of commercial formulation was dosed from the eye drop bottle for each measurement with 0.5 mL of a filtered formulation withdrawn by a standard 3 mL syringe for pendant drop measurements. A drop shape analysis was conducted by the Tensiometer to extract surface tension data of the filtered formulation. A calibration curve with equilibrium interfacial surface tension data as a function of BAK concentration was used to estimate concentrations and fractional BAK removal from the filtered eye drop formulation. Periodic surface tension measurements of the formulations were done to monitor fractional BAK removal.
The steady state Langmuir adsorption isotherm model and Langmuir surface equation of state were used to fit the equilibrium interfacial surface tension data are given below:
[formula] [formula] Where a least square error minimization protocol was used to fit the experimental equilibrium surface tension values and the calculated estimates using the above model. […] Benzalkonium Chloride Removal from Commercial Bimatoprost Formulation (Allegran Inc.)

[5] = Partition coefficient in pHEMA particles prepared using SR9035 as cross-linker; details: 100 mg particles in 3.5 mL solution, 9 days
Experimental: The partition coefficients of timolol, CMC and BAK in pHEMA particles prepared using SR9035 as cross-linker was measured. pHEMA particles (100 mg) were soaked in 3.5 mL of timolol, CMC and BAK solution, which concentration was 0.08 mg/mL, 0.5% and 2.4 mg/mL, respectively. After 9 days of soaking, the concentration of the drug or BAK solution was measured by using UV-Vis spectrophotometry. The drug or BAK concentration after soaking indicated the amount of drug or BAK that absorbed into the gel relative to the initial concentration. The partition coefficient of timolol and CMC in pHEMA particles is much smaller than that of BAK, and should have excellent separation efficiency.

[6] = Partition coefficient in macroporous pHEMA hydrogel; details: for Partition coefficient: 250 mg gel in 12 mL PBS solution, 15 days, mean ± SD, n=3
Experimental: As indicated above, the absorption percentage of hydrophilic drug is small, whereas a significant amount of hydrophobic drug is uptake by the macroporous pHEMA gel. The high affinity of hydrophobic drug to the gel can be determined by measuring the partition coefficient of the drug in the gel. To measure the partition coefficient, a piece of macroporous pHEMA gel of 250 mg was soaked in 12 mL of drug or BAK solution. After 15 days of soaking, the concentration of the drug or BAK solution was measured by using UV-Vis spectrophotometry. The drug or BAK concentration after soaking indicated the amount of drug or BAK in reference to the initial concentration is that absorbed into the gel. The partition coefficient of timolol and dorzolamide in macroporous pHEMA gel is roughly 15 times smaller than that of BAK, which is excellent separation efficiency. In contrast, the partition coefficients of latanoprost and BAK are pretty high and the separation efficiency of the gel for this mixture is poor.

Row | Compound | partition coefficient, times smaller than that of BAK [6] | Partition coefficient [6] | partitioning between gel and solution (in words) [2] | Partition coefficient [5] | also measured
1 | Benzalkonium Chloride [BAK] | – | – | strongly partitions into the gel | ~300 | adsorption time on pHEMA ([1]; compared with transit time): < 3 s; partition coefficient into pHEMA matrix ([1]; depends on BAK concentration and structure of pHEMA matrix): 100-500; Partition coefficient [3]: 200-250; maximum surface coverage Γ∞ (fit parameter) [4]: 0.003309 mol/m^2; ratio of kinetic rate constants β/α (fit parameter) [4]: 462.14 m^3/mol
2 | CCNC(=O)CCC/C=C\C[C@@H]1[C@@H](/C=C/[C@@H](O)CCc2ccccc2)[C@H](O)C[C@@H]1O [Bimatoprost] | – | – | tends to remain in solution | – | –
3 | CC(C)(C)NC[C@H](O)COc1nsnc1N1CCOCC1 [Timolol, timolol maleate] | roughly 15 times | 6.49 | – | 5.59 ± 0.13^a | –
4 | CCN[C@H]1C[C@H](C)S(=O)(=O)c2sc(S(N)(=O)=O)cc21 [Dorzolamide, dorzolamide hydrochloride] | roughly 15 times | 7.59 ± 0.56 | – | – | –

The next lines start with results.

Row | partition coefficient, times smaller than that of BAK [6] | Partition coefficient [6] | Compound | partitioning between gel and solution (in words) [2] | Partition coefficient [5] | also measured
5 | – | 33.53 ± 1.31 | C[C@@H]1C[C@H]2[C@@H]3CCC4=CC(=O)C=C[C@]4(C)[C@@]3(F)[C@@H](O)C[C@]2(C)[C@@]1(O)C(=O)CO [Dexamethasone, dexamethasone] | – | – | –
6 | – | 90.18 | CC(C)OC(=O)CCC/C=C\C[C@@H]1[C@@H](CC[C@@H](O)CCc2ccccc2)[C@H](O)C[C@@H]1O [Latanoprost, latanoprost] | – | – | –
